Laboratory results as given in PubChem BioAssay AID1645868 (Buhrlage Lab, Dana-Farber Cancer Institute and Novartis …, 2021).
pIC50: −log10 of the molar value. Active and inactive are the calls of the source.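 Rule for the calls: active = maximal percent inhibition of the deubiquitinase OTUD3 of at least 30% across the tested doses; inactive = the rest.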

Target: OTU domain-containing protein 3 (Homo sapiens) (UniProt Q5T2D3)
Assay: Validation of screening hits, potency titration, in vitro enzymatic, OTU domain-containing protein 3 DUB inhibitors (AID 1645868)
Details: purified OTUD3, ubiquitin-rhodamine cleavage fluorescence, 2 h

OTU domain-containing protein 3 (Homo sapiens), sequence (Q5T2D3 whole entry, looked up, the tested form may be a part): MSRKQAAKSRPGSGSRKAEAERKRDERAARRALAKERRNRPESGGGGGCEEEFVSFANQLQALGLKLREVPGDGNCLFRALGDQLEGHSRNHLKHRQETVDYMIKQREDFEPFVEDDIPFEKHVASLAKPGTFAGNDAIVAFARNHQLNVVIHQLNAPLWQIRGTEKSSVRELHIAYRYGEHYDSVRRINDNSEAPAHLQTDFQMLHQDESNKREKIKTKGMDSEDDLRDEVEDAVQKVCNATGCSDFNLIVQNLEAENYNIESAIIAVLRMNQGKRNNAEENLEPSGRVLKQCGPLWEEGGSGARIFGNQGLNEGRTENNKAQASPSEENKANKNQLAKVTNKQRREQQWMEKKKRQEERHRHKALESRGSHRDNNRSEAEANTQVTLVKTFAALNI

| SMILES | IC50 | pIC50 |
| --- | --- | --- |
| COc1ccc(C(=O)Nc2sc3c(c2C(=O)NCc2cccnc2)CCCC3)cc1 | > 50 µM (inactive) | – |
| COC(=O)c1sc2ccccc2c1NC(=O)c1ccc(Br)s1 | – | 4.67 |
| O=C(Nc1nnc2n1CCCS2)c1cccc(Cl)c1 | > 50 µM (inactive) | – |
| COc1ccccc1NC(=O)CSC1=NC2(CCCCC2)Nc2ccccc21 | > 50 µM (inactive) | – |
| COc1c2c(cc3cc(O)c4c(=O)cc(C)oc4c13)CCC2=O | > 50 µM (inactive) | – |
| Cc1cc(O)c(Oc2cc(C)cc(O)c2O)c(O)c1 | – | 4.77 |
| Cc1ccc2c(c1)[C@]1(C(=O)N2)[C@@H]2C(=O)N(c3cccc(C(F)(F)F)c3)C(=O)[C@@H]2C2CCCN21 (stereo not given in full) | > 50 µM (inactive) | – |
| Cc1nn(-c2nc3ccccc3[nH]2)c2c1C(c1cccs1)CC(=O)N2 (stereo not given) | > 50 µM (inactive) | – |
| Cc1nc(CN2CCn3c(Cn4cccn4)cnc3C2C)cs1 (stereo not given) | > 50 µM (inactive) | – |
| CC(C)=CCCC1(C)OC2=C(C(=O)c3cc(O)cc(O)c3C2=O)[C@H]2C=C(C)CC[C@H]21 (stereo not given in full) | > 50 µM (inactive) | – |
| O=C(COC(=O)c1cc(Cl)c2c(c1)OCO2)Nc1ccc2[nH]c(=O)[nH]c2c1 | > 50 µM (inactive) | – |
| O=C(CCCCn1c(=O)c2ccccc2n(Cc2ccccc2F)c1=O)NCCc1ccccc1 | – | 4.77 |
| COc1cnc(-c2ccccn2)nc1Sc1ccc(C)cc1 | > 50 µM (inactive) | – |
| O=C(Nc1ccc(SCc2nnc(-c3ccccc3)o2)cc1)C1CC1 | > 50 µM (inactive) | – |
| Cc1ccc(OC(=O)c2cn(-c3ccccc3)nc2-c2cccnc2)cc1 | > 50 µM (inactive) | – |
| Cc1ccc(Cc2nc(-c3ccc(=O)[nH]c3)no2)cc1 | > 50 µM (inactive) | – |
| Cc1c(-c2nnc(-c3ccccn3)o2)nnn1-c1cccc(Cl)c1 | – | 4.31 |
| COc1ccc(CN2CCCC23CCCN(C(=O)CCc2cccnc2)C3)cc1F (stereo not given) | – | 4.31 |
| Clc1cncc(Oc2nc(-c3cccnc3)nc3ccccc23)c1 | > 50 µM (inactive) | – |
| CCOc1ccccc1C(=O)Oc1ccc2c(C)cc(=O)oc2c1 | – | 4.49 |
| COc1ccc(OC)c(NC(=O)Cn2c(=O)n(CC3CCC(C(=O)NCCc4ccccc4)CC3)c(=O)c3ccccc32)c1 (stereo not given) | – | 4.50 |
| COc1ccc(C(C(=O)NCc2ccccc2)N(C(=O)CCN2CCc3ccccc32)c2ccc(C)c(C)c2)cc1 (stereo not given) | > 50 µM (inactive) | – |
| COc1ccc(CCn2cnc3c4ccccc4n(C)c3c2=O)cc1OC | > 50 µM (inactive) | – |
| CCCc1nc2c(sc3nc4c(cc32)COC(C)(C)C4)c(=O)n1CC(=O)Nc1ccccc1C | – | 4.52 |

| SMILES | IC50 | pIC50 |
| --- | --- | --- |
| O=C(Nc1ccc2nccnc2c1)c1cccc(C(F)(F)F)c1 | > 50 µM (inactive) | – |
| COc1cccc(NC(=O)c2cnc3c(c2)c(=O)n(C)c(=O)n3C)c1 | – | 4.70 |
| COc1ccc(CC(=O)Nc2cccc(-c3nc4ncccc4o3)c2)cc1OC | > 50 µM (inactive) | – |
| Cc1nn(-c2ccccc2)c2c1N=C1C(Cl)=CC(Cl)=CN1C21C(=O)Nc2ccccc21 (stereo not given) | > 50 µM (inactive) | – |
| COc1ccccc1S(=O)(=O)N1CC[C@@H]2CN(C)[C@@H]2C1 | > 50 µM (inactive) | – |
| N#Cc1ccc(Cc2ncc(C(F)(F)F)cc2Cl)s1 | > 50 µM (inactive) | – |
| Cc1ccc(C(=O)Nc2ccc3nccnc3c2)cc1 | > 50 µM (inactive) | – |
| O=C(COC(=O)c1n[nH]c2ccccc12)Nc1ccc(N2CCCCC2)cc1 | – | 4.49 |
| O=S(=O)(c1cccc2cccnc12)N(CCc1ccccc1)C1CCN(CCc2ccc(Cl)cc2)CC1 | > 50 µM (inactive) | – |
| COc1ccccc1NS(=O)(=O)c1ccc2oc(SCC(=O)c3ccccc3)nc2c1 | > 50 µM (inactive) | – |
| CC(C)=CCC/C(C)=C/Cc1c(O)cc2c(c1O)C(=O)OC2 | – | 5.49 |
| O=C(Nc1cccc2ccccc12)N1CCC(c2nc3c(nnn3Cc3ccc(F)cc3)c(=O)[nH]2)CC1 | > 50 µM (inactive) | – |
| COc1ccc(CCNC(=O)COc2ncnc3oc(C)c(C)c23)cc1OC | > 50 µM (inactive) | – |
| O=C(NCc1ccc(Cl)cc1)Nc1cccc2ccccc12 | > 50 µM (inactive) | – |
| COc1ccc(Cl)cc1N1C(=O)[C@H]2[C@@H](C1=O)[C@]1(C(=O)Nc3c(C)cc(C)cc31)N1CCC[C@@H]21 | > 50 µM (inactive) | – |
| O=C(CN1C(=O)C2CCCC2=Nc2ccccc21)Nc1cc(F)ccc1F (stereo not given) | – | 4.72 |
| NS(=O)(=O)c1cccc(NS(=O)(=O)c2ccc(/C=C/C(=O)OCC(=O)c3ccc(Br)cc3)cc2)c1 | > 50 µM (inactive) | – |
| Cc1ccc(-n2c(=O)[nH]c3c(C(N)=O)nc(-c4cccnc4)nc32)cc1 | – | 4.51 |
| CCCc1cc(=O)oc2cc(OCC(=O)NCc3ccc(OC)cc3)ccc12 | – | 4.44 |
| CN(C)Cc1ccc(C(=O)Nc2ccc(-c3nccs3)cc2)cc1 | > 50 µM (inactive) | – |
| CCCC(=O)Nc1ccc(SCc2nnc(-c3ccccc3)o2)cc1 | > 50 µM (inactive) | – |
| Cc1cccc(NC(=O)CSc2nnc(-c3n[nH]c4c3CCC4)n2N)c1 | – | 4.50 |
| CCN1C(SCc2ccccc2F)=NS(=O)(=O)c2ccccc21 | > 50 µM (inactive) | – |
| COc1ccc(C(=O)Nc2cc(-c3ccccn3)no2)cn1 | > 50 µM (inactive) | – |

| SMILES | IC50 | pIC50 |
| --- | --- | --- |
| CC1=C(c2ccc(C)c(C)c2)S(=O)(=O)NC1=NCC(=O)NCCc1ccc(C)cc1 | > 50 µM (inactive) | – |
| Cc1cc(C(=O)CSc2nc3ccccc3[nH]2)c(C)n1Cc1ccco1 | > 50 µM (inactive) | – |
| O=C(NCc1ccc(F)cc1)C1CCN(c2cnc(N3CCCCC3)nc2)CC1 | > 50 µM (inactive) | – |
| CS(=O)(=O)N1CCCc2cc(C(=O)Nc3ccc(Oc4ccccc4)cc3)ccc21 | > 50 µM (inactive) | – |
| CCOc1ccc(NC(=O)c2cc(-c3ccccc3)c(N3CCOCC3)s2)cc1 | – | 4.57 |
| O=C(Nc1oc2ccccc2c(=O)c1-c1ccc2c(c1)OCO2)C1CCCCC1 | > 50 µM (inactive) | – |
| COc1ccc(OCC(=O)Nc2ccc(C)c(OCc3cc(=O)n4ccccc4n3)c2)cc1 | > 50 µM (inactive) | – |
| O=C(NCc1ccc2c(c1)OCO2)c1[nH]nc2c1COc1ccccc1-2 | – | 4.61 |
| Cc1ccc(NC(=O)c2cnc3c(c2)c(=O)n(C)c(=O)n3C)cc1 | – | 4.70 |
| Cc1ccc(-c2ncc(C(=O)NCc3cccc(C)c3)c(-c3ccncc3)n2)cc1 | > 50 µM (inactive) | – |
| O=C(COC(=O)Cn1cnc2ccccc21)Nc1ccc2c(c1)OCCO2 | > 50 µM (inactive) | – |
| COc1ccc(-c2cc(C(=O)NC3CCCCCC3)[nH]n2)cc1S(=O)(=O)N(C)C | > 50 µM (inactive) | – |
| Cc1c(-c2nc(-c3ccccc3Cl)no2)nnn1-c1cccc(F)c1 | > 50 µM (inactive) | – |
| COc1ccc(C2/C(=C(\O)c3ccccc3)C(=O)C(=O)N2c2nc3ccc(F)cc3s2)cc1 (stereo not given) | – | 4.47 |
| COc1ccc2cc3c(nc2c1)OC(=O)N(CCc1cccc(F)c1)C3 | > 50 µM (inactive) | – |
| O=C(CN1CCCCC1)Nc1nnc(-c2ccc([N+](=O)[O-])cc2)s1 | – | 4.72 |
| O=C1NCc2c1c1c3ccccc3[nH]c1c1[nH]c3ccccc3c21 | > 50 µM (inactive) | – |
| CC(=O)c1ccc(NC(=O)C2CCN(c3cncnc3N3CCCC3)CC2)cc1 | > 50 µM (inactive) | – |
| O=C(Nc1cc(F)c2nc(N3CCOCC3)ccc2c1)C1CC1 | > 50 µM (inactive) | – |
| C=Cc1ccc(Cn2cccc(S(=O)(=O)N3CCCC3)c2=O)cc1 | > 50 µM (inactive) | – |
| O=C(NCc1cccc(NC(=O)C2CC2)c1)Nc1cccc2ccccc12 | – | 4.51 |
| O=C(Nc1ccccc1Cl)N(Cc1cc2cc3c(cc2[nH]c1=O)OCCO3)C1CCCCC1 | – | 4.39 |
| CCc1ccc2[nH]c3c(c(=O)c2c1)CN(CC(=O)NCc1ccc2c(c1)OCO2)CC3 | – | 4.54 |
| CN1CCN(C(=O)c2cc(-c3ccn(-c4ccccc4)n3)n3ccccc23)CC1 | > 50 µM (inactive) | – |

| SMILES | IC50 | pIC50 |
| --- | --- | --- |
| O=C(NCc1ccc(-c2nc3cnccc3o2)cc1)c1ccccc1F | – | 4.69 |
| Cc1ccc(NC(=O)c2sc(=S)n(CCc3ccccc3)c2N)cc1 | – | 4.74 |
| Nc1nc(OCc2ccccc2)c2[nH]c(/C=C/c3cccs3)nc2n1 | – | 4.54 |
| Cc1ccc(C2c3cccn3CCN2C(=O)Nc2ccccc2)cc1 (stereo not given) | > 50 µM (inactive) | – |
| CCCn1c(=O)n(CC(=O)c2ccccc2F)c2c(C(N)=O)nc(-c3ccco3)nc21 | > 50 µM (inactive) | – |
| CC(C)Cc1nc2sc3c(NCCN4CCOCC4)ncnc3c2c2c1CCC2 | > 50 µM (inactive) | – |
| COc1ccc(-c2cc3c(=O)n(CC(=O)Nc4ccccc4F)ccn3n2)cc1OC | > 50 µM (inactive) | – |
| COc1ccccc1OCC(=O)Nc1ccc2c(c1)CCC(=O)N2Cc1ccccc1 | > 50 µM (inactive) | – |
| O=C(COc1nsnc1N1CCOCC1)Nc1ccc(F)c(F)c1 | > 50 µM (inactive) | – |
| COc1ccc(NC(=O)C2[C@@H]3C(=O)N(C4CCCCC4)C(=O)[C@@H]3[C@H]3c4ccccc4C=CN23)cc1 (stereo not given in full) | > 50 µM (inactive) | – |
| O=C(Cc1ccccc1F)N1CCC2(CC1)CC1(CO2)Nc2ccccc2-n2cccc21 (stereo not given) | > 50 µM (inactive) | – |
| COC(=O)c1cc2c(ccn2C)n1CC(=O)NC1CCCC1 | > 50 µM (inactive) | – |
| Cc1ccc(NC(=O)CCC(=O)Nc2ccc3nc(N4CCCCC4)cc(C)c3c2)c(Br)c1 | – | 4.30 |
| C=C1CCC2[C@](C)(CCC[C@]2(C)C(=O)OC)[C@H]1CCc1ccoc1/C=C/C(=O)O (stereo not given in full) | > 50 µM (inactive) | – |
| CS(=O)(=O)N1CCCc2cc(C(=O)Nc3ccc4c(c3)OCO4)ccc21 | > 50 µM (inactive) | – |
| Cc1ccc(C)c(NC(=O)CCc2nc(CSc3nc4ccccc4o3)no2)c1 | – | 4.66 |
| CC(=O)N1Cc2ccccc2CC2(CCCN(CC3CCOCC3)C2)C1 (stereo not given) | > 50 µM (inactive) | – |
| CC(OC(=O)c1ccc2c(c1)OCCO2)C(=O)NCC1CCCCC1 (stereo not given) | – | 4.47 |
| O=C(O)c1nccnc1C(=O)N1CCc2ccccc2C1 | > 50 µM (inactive) | – |
| O=C(CSc1cn(Cc2ccccc2)c2ccccc12)Nc1ccc2c(c1)OCCO2 | > 50 µM (inactive) | – |
| CCCNc1cc(-c2ccccc2)nc2nc(-c3cccnc3)nn12 | > 50 µM (inactive) | – |
| Cc1ccc2c(c1)c(=O)c(C(=O)c1ccccc1)cn2CC(=O)Nc1ccc2c(c1)OCCO2 | – | 4.85 |
| CN1C(=O)[C@@]23C[C@]4([C@@]56C[C@]78SS[C@](CO)(C(=O)N7[C@@H]5Nc5ccccc56)N(C)C8=O)c5ccccc5N[C@@H]4N2C(=O)[C@]1(CO)SS3 | > 50 µM (inactive) | – |
